Measurements reported in ChEMBL document CHEMBL3813614 (ACS Med Chem Lett, 2016).

Experiments:
Format in all cases: ADME, organism-based
[1] = Ratio of unbound fraction in CD1 mouse brain to plasma at 50 mg/kg, po after 6 hrs by LC-MS/MS analysis; details: read-out: K(p,uu,brain)
[2] = AUC in CD1 mouse at 25 mg/kg, po; details: in vivo
Brain [3] = assay: Unbound fraction in CD1 mouse brain at 25 mg/kg, po administered as single dose measured at 1 hr post dose by LC-MS/MS analysis; details: in vivo
Brain [4] = assay: Unbound fraction in CD1 mouse brain at 25 mg/kg, po administered as single dose measured at 6 hrs post dose by LC-MS/MS analysis; details: in vivo
[5] = Ratio of unbound fraction in CD1 mouse brain to plasma at 25 mg/kg, po after 6 hrs by LC-MS/MS analysis; details: read-out: K(p,uu,brain)

Work on `COC1(c2sc3c(N4CCOCC4)nc(-c4cnc(N)nc4)nc3c2C)COC1` yielded a Kp uu at 6 h [1] of 0.4.
In the case of `CC1(C)OCCn2c1nc1c(N3CCOCC3)nc(-c3cnc(N)nc3)nc12` [PAXALISIB], the AUC [2] is reported as 47 µM·h, the “Drug uptake(free)” value (Brain [3]) is reported as 0.32 µM and the “Drug uptake(free)” value (Brain [4]) is reported as 0.16 µM.
Compound `COC(C)(C)c1cc2nc(-c3cnc(N)nc3)nc(N3CCOCC3)c2s1` has a Kp uu at 6 h [5] of 0.4.
